From patent publication US9415063B2, “Treatment of neurological disorders” (VELACOR THERAPEUTICS PTY LTD., priority 2007, dated 2016)
Like-named read-outs stand apart in the source and are kept apart here.

Assays:
[1] = tested on: cultured rat hippocampal slices (CA1 region); experiment: Hypoxia induced neurodegeneration in organotypic hippocampal slice cultures; type: cell-based, Wistar rat; settings: 100 μM; compound present 24 hours pre-, during 3 hours of and 24 hours post-hypoxia; vs hypoxia alone
Experimental: (§1) Wistar rat pups (8-11 days old) were decapitated and the hippocampus rapidly dissected into ice-cold Gey's balanced salt solution supplemented with 4.5 mg/mL glucose. Transverse sections (400 μm) were cut on a McIlwain tissue chopper and placed back into ice-cold Gey's balanced salt solution. Slices were separated and plated onto Millicell CM culture inserts (4 per well) and maintained at 37° C./5% CO2 for 14 days. Maintenance medium consists of 25% heat-inactivated horse serum, 25% Hank's balanced salt solution (HBSS) and 50% minimum essential medium with added Earle's salts (MEM), supplemented with 1 mM glutamine and 4.5 mg/mL glucose. Medium was changed every 3-4 days.
PI fluorescence was detected using a Leica DMIL inverted microscope fitted with a rhodamine filter set. […]
Neuronal damage was assessed using ImageJ software running on a PC. […] Light transmission images were captured prior to the addition of drugs, and PI fluorescence images recorded at the end of the 24-hour recovery period. The area of the CA1 region was then determined from the transmission image. The area of PI fluorescence in the CA1 is measured using the threshold function on ImageJ, and neuronal damage expressed as the percentage of the CA1 in which PI fluorescence is detected above background (Pringle et al., 1997).

[2] = tested on: cultured rat hippocampal slices (CA1 region); experiment: Ischaemia (oxygen glucose deprivation) induced neurodegeneration in organotypic hippocampal slice cultures; type: cell-based, Wistar rat
Experimental: as §1
(§2) Neuronal damage was assessed using ImageJ software running on a PC. Images being captured using a monochrome CCD camera and saved for offline analysis. Light transmission images were captured prior to the addition of drugs, and PI fluorescence images recorded at the end of the 24-hour recovery period. The area of the CA1 region was then determined from the transmission image. The area of PI fluorescence in the CA1 is measured using the threshold function on ImageJ, and neuronal damage expressed as the percentage of the CA1 in which PI fluorescence is detected above background (Pringle et al., 1997).
(§3) In this case the sodium selenate was made to 50 mM in SFM, then serially diluted to 25 mM, 10 mM and 1 mM, each of these used at 10 μL/mL to give final concentrations of 10 μM, 100 μM, 250 μM and 500 μM. Sodium selenite and selenomethionine as before. An experiment to assess the toxicity of sodium selenate at these higher concentrations was run in parallel with the OGD (Results FIG. 4).

[3] = tested on: cultured rat hippocampal slices; experiment: Tissue culture toxicity screen in organotypic hippocampal slice cultures
Experimental: as §1, §2
A preliminary toxicity screen was carried out on the compounds to determine tissue culture exposure levels that would cause toxicity. […] Damage was measured after 24 hours and 48 hours.
as §3

PTZ induced seizures = settings: for Number of seizures: 30 minutes observation; for Number of seizures / Duration of seizure activity / Number of severe seizures / Latency to seizure onset: mean±SEM; for Latency to seizure onset: not significant vs vehicle
Experimental: All animal experiments were carried out according to the National Institute of Health (NIH) guidelines for the care and use of laboratory animals, and approved by the Ethical Committee of the National Laboratory Animal Center, Kuopio, Finland. Altogether 30 adult male Sprague-Dawley rats (Taconic, Denmark) weighing 200-240 g were used. Animals were housed at a standard temperature (22±1° C.) and in a light-controlled environment (lights on from 7 am to 8 pm) with ad libitum access to food and water.
Animals were grouped as follows: • 10 rats treated with vehicle (sterile water as drinking water). • 10 rats treated with sodium selenate anhydrous (120 microgram in 100 mL sterile water), p.o in drinking water for 7 days prior to PTZ injection. • 10 rats treated with sodium selenate anhydrous (1.2 milligram in 100 mL sterile water), p.o in drinking water for 7 days prior to PTZ injection. PTZ Induced Seizures
Pentylenetetrazol (PTZ) (60 mg/kg) is administered intraperitoneally (i.p., 2 mL/kg in saline) to male Sprague-Dawley rats.
Sodium selenate is administered p.o in drinking water for 7 days prior to PTZ injection. The rats have ad libitum access to water (normal daily consumption of water is 30 mL/rat/day).
The incidence of seizures (seizure and severe seizure), the latency for the first seizure appearance and the duration of seizure activity were used as indices of anticonvulsant effect. Seizure numbers were not counted if the animal died. […] Animals that died were assigned the maximum seizure duration of 30 minutes. […] Severe seizure was defined as a prolonged seizure involving stretching and twisting convulsions.
Values are presented as percentages and differences are considered to be statistically significant at the P<0.05 level. Statistical analysis was performed using StatsDirect software. Differences among groups were analyzed by 1-way-ANOVA followed by Dunnet's test (comparison to the control (=vehicle treated PTZ rats) group).

[4] = 100 μM, compound present 24 hours pre-, during 1 hour of and 24 hours post-ischaemia, vs OGD alone
[5] = 120 μg in 100 mL drinking water p.o. 7 days prior to PTZ
[6] = 1.2 mg in 100 mL drinking water p.o. 7 days prior to PTZ

Row | SMILES | Neuronal damage (PI fluorescence in CA1) after hypoxia [1] | Neuronal damage (PI fluorescence in CA1) after OGD ischaemia [2, 4] | Concentration above which compound was toxic in tissue culture ([3]; serum free media, tested at 5 μM, 25 μM and 100 μM, damage measured after 24 hours and 48 hours) | Toxicity in tissue culture in the absence of hypoxia ([3]; 500 μM, run in parallel with the OGD experiment (FIG. 4)) | Tissue culture toxicity ([3]; serum free media, any concentration tested up to 100 μM, 24 hours and 48 hours) | Neuronal damage (PI fluorescence in CA1) after OGD ischaemia ([2]; 250 μM, pre, during and post-ischaemia, vs OGD alone) | Neuronal damage (PI fluorescence in CA1) after OGD ischaemia ([2]; 500 μM, pre, during and post-ischaemia) | Number of seizures (PTZ induced seizures; [5]) | Duration of seizure activity (PTZ induced seizures; [5]) | Number of severe seizures (PTZ induced seizures; [5]) | Latency to seizure onset (PTZ induced seizures; [5]) | Mortality (PTZ induced seizures; 120 μg in 100 mL drinking water p.o. for 7 days prior to PTZ 60 mg/kg i.p., 10 rats) | Number of seizures (PTZ induced seizures; [6]) | Duration of seizure activity (PTZ induced seizures; [6]) | Number of severe seizures (PTZ induced seizures; [6]) | Latency to seizure onset (PTZ induced seizures; [6])
1 | O=C(O)c1ccc(C2=C3C=CC(=N3)C(c3ccc(C(=O)O)cc3)=c3ccc([nH]3)=C(c3ccc(C(=O)O)cc3)c3ccc([n-]3)C(c3ccc(C(=O)O)cc3)c3ccc2[n-]3)cc1.[Cl-].[Mn+3] (stereo not drawn) [MnTBAP, Mn(III)tetrakis(4-benzoic acid)porphyrin chloride, reference compound] | prevented | prevented |  |  |  |  |  |  |  |  |  |  |  |  |  | 
2 | O=[Se](O)O [Sodium selenite, reference compound] |  |  | above 5 μM |  |  |  |  |  |  |  |  |  |  |  |  | 
3 | O=[Se](=O)(O)O [sodium selenate] | Significant attenuation of damage | Significant attenuation of damage |  | neurotoxicity | not found to be toxic | Significant attenuation of damage | significant increase in toxicity | 8.5±2.1 | 770.9 ± 189.9 s | 0.8±0.1 | 217.6 ± 117.6 s | 1 animal | 9.9±2.2 | 808.6 ± 126.1 s | 0.9±0.1 | 107.6 ± 26.9 s
